Assay results published in US9023758B2, “Methods for promoting plant health” (University of Delaware, priority 2009, dated 2015).

Key:
[1] = system: B. subtilis strain FB17; experiment: capillary chemotaxis assay; format: cell-based, Bacillus subtilis
Protocol: (§1) To evaluate MA's ability to selectively recruit FB17, microbial motility at varying MA doses was measured by capillary chemotaxis assay (Gordillo et al., 2007). […] The concentration range of 5 to 30 μM falls within the biological titers of MA secreted in planta through the root exudates. […] To establish whether L-MA specifically chemoattracts FB17, other beneficial bacteria, such as Pseudomonas fluorescens strain Pf01 and Azospirillum brasilense strain Cd, and pathogenic bacteria, such as Pst DC3000, Erwinia carotovora strain AH2, Agrobacterium rhizogenes strain Arqua-1, and Agrobacterium tumefaciens strain LBA4404, were assayed for MA. […] Bacterial strains used in the chemotactic assay included B. subtilis strain FB17, A. tumefaciens strain LBA4404, E. carotovora strain AH2, A. rhizogenes strain Arqua-1, A. brasilense strain Cd, P. fluorescens (Pf01), and P. syringae (Pst DC3000). Data are the average of six replicates from two experiments conducted separately.

[2] = system: yqxM operon; format: cell-based, B. subtilis strain Marburg
[3] = system: Agrobacterium rhizogenes strain Arqua-1; experiment: capillary chemotaxis assay; format: cell-based
Protocol: as §1

[4] = system: Agrobacterium tumefaciens strain LBA4404; experiment: capillary chemotaxis assay; format: cell-based
Protocol: as §1

[5] = system: Azospirillum brasilense strain Cd; experiment: capillary chemotaxis assay; format: cell-based
Protocol: as §1

[6] = system: Erwinia carotovora strain AH2; experiment: capillary chemotaxis assay; format: cell-based
Protocol: as §1

[7] = system: Pseudomonas fluorescens strain Pf01; experiment: capillary chemotaxis assay; format: cell-based
Protocol: as §1

[8] = system: Pst DC3000; experiment: capillary chemotaxis assay; format: cell-based, Pseudomonas syringae pv tomato
Protocol: as §1

[9] = system: PR1::GUS; experiment: PR1::GUS reporter expression in Arabidopsis
[10] = system: PDF1.2 and PR1 transcripts; experiment: RT-PCR of defense genes PDF1.2 and PR1; format: in vivo, Arabidopsis thaliana; details: leaves, compared to mock inoculated plants
Source text: To further confirm that a FB17 component, acetoin, mediates this response we analyzed the defense genes PDF1.2 and Jin1 whose expression depends on functional ET and JA pathways.

[11] = system: free SA; experiment: free SA levels in Arabidopsis leaves; details: compared to control untreated plants
[12] = system: DC3000; experiment: acetoin treatment of Arabidopsis plants leaf inoculated with DC3000

O=C(O)C[C@@H](O)C(=O)O [D-MA]
chemotactic efficacy compared to the natural L-MA form ([1]; 30 μM): lower efficacies | chemotaxis compared to water control ([1]; 30 μM): significantly higher than the water control | expression of biofilm operon yqxM (β-galactosidase activity) [2]: did not stimulate β-galactosidase activity

O=C(O)C[C@H](O)C(=O)O [L-MA, L-malic acid]
chemotactic behavior of FB17 ([1]; dose range of 5 to 30 μM): positive chemotactic behavior in a concentration-dependent manner | motility toward L-MA compared to FB17 [3]: none of the bacteria shows any significant motility | motility toward L-MA compared to FB17 [4]: none of the bacteria shows any significant motility | motility toward L-MA compared to FB17 [5]: none of the bacteria shows any significant motility | motility toward L-MA compared to FB17 [6]: none of the bacteria shows any significant motility | motility toward L-MA compared to FB17 [7]: none of the bacteria shows any significant motility | motility toward L-MA compared to FB17 [8]: none of the bacteria shows any significant motility | expression of biofilm operon yqxM (β-galactosidase activity) [2]: elevated expression | β-galactosidase activity level and kinetics compared to root exudates [2]: activity level was lower and the kinetics response was abbreviated

O=C(O)c1ccccc1O [SA]
PR1 expression ([9]; leaves sprayed): higher PR1 expression | PR1 expression ([9]; root treated plants): much less PR1 expression

CC(=O)C(C)O (stereo not drawn) [acetoin, 3-hydroxy-2-butanone]
PDF1.2 transcripts [10]: more | PR1 transcripts [10]: more | free SA levels [11]: enhances the total free SA level | PR1::GUS expression ([9]; treated or root inoculated plants compared to untreated plants): enhanced PR1 expression | percent disease incidence ([12]; Arabidopsis, ratio of leaves with symptoms to leaves inoculated, vs untreated): significantly lower | disease symptoms ([12]; Arabidopsis, volatile treatment, 5 days post-infection, compared to untreated controls): significantly lower disease symptoms | DC3000 CFUs from leaves ([12]; Arabidopsis, vs untreated, P<0.05): lower DC3000 CFUs | protection from DC3000 infection ([12]; SA deficient NahG plants): failed to protect | protection from DC3000 infection ([12]; ethylene mutant etr1-3 plants): failed to protect | DC3000 multiplication in terms of CFUs ([12]; jasmonic acid mutant Jar1-1): significantly reduction in DC3000 multiplication | DC3000 multiplication in terms of CFUs ([12]; wild type Col-0): significantly reduction in DC3000 multiplication

O=C(O)C(=O)O [oxalic acid, reference compound]
chemotactic efficacy compared to the natural L-MA form ([1]; 30 μM): lower efficacies | expression of biofilm operon yqxM (β-galactosidase activity) [2]: did not stimulate β-galactosidase activity
